# According to patent US8247211B2, “Glycopeptide antibiotics” (American Cyanamid Company, priority 2001, dated 2012):
# Tests used:
# [1] = system: Enterococcus sp.; test: In vitro antibacterial evaluation: minimum inhibitory concentration (MIC), broth dilution method; type: cell-based; details: broth dilution, 5×10^5 CFU/mL, 18 hours at 35° C.
# Outline: (§1)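 NCCLS M7-A2 broth dilution; Muller-Hinton II […]; 5×10^5 CFU/mL; 64-0.06 μg/mL. MIC = lowest concentration with no growth.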
# [2] = system: Escherichia coli; test: as above; type: cell-based; details: 5×10^5 CFU/mL, 18 hours at 35° C.
# Outline: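 MIC read as lowest drug level preventing visible growth. Organisms at 5×10^5 CFU/mL were exposed to a 64-0.06 μg/mL dilution series in Muller-Hinton II […] following NCCLS broth dilution standard M7-A2.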
# [3] = system: Staphylococcus sp.; test: as above; type: cell-based; details: for MIC Staphylococcus aureus (ATCC 29213): strain ATCC 29213; for MIC Staphylococcus aureus (GC 1131): strain GC 1131; for MIC Staphylococcus aureus (GC 3051): strain GC 3051; for MIC Staphylococcus aureus (GC 3053): strain GC 3053; for MIC Staphylococcus aureus (GC 4541): strain GC 4541; for MIC Staphylococcus aureus (GC 4542): strain GC 4542; for MIC Staphylococcus aureus-SMITH (GC 4543): strain GC 4543; for MIC Staphylococcus aureus (GC 4544): strain GC 4544; for MIC Staphylococcus aureus (GC 4545): strain GC 4545; for MIC Staphylococcus haemolyticus (GC 4546): strain GC 4546; for MIC Coagulase Negative Staphylococcus (GC 4547): strain GC 4547; for MIC Coagulase Negative Staphylococcus (GC 4548): strain GC 4548; for MIC Coagulase Negative Staphylococcus (GC 4549): strain GC 4549; for MIC Coagulase Negative Staphylococcus (GC 4551): strain GC 4551; for MIC Coagulase Negative Staphylococcus (GC 6257): strain GC 6257
# Outline: as §1
# [4] = system: Streptococcus sp.; test: as above; type: cell-based; details: broth dilution, 5×10^5 CFU/mL, 18 hours at 35° C.
# Outline: as §1
# [5] = system: Enterococcus faecalis (GC 6189), vancomycin resistant strain; test: Acute lethal infection in mice (ED50); type: in vivo; details: female CD-1 mice, intraperitoneal challenge, intravenous dose 30 min. after infection, 7 day survival ratios
# Outline: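 Female CD-1 mice (20 ± 1-2 g) were infected intraperitoneally with enough bacteria, suspended in Trypticase Soy Broth or hog gastric mucin, to kill untreated controls within 24-48 hr. Compound in saline or 5% dextrose was given intravenously 30 min after infection. ED50 came from pooled 7-day survival over 3 tests.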
# [6] = broth dilution, 18 hours at 35° C.
smiles,measurement,setting,value
"CCC(CC)C1OCC2OC(OC3C(CO)OC(Oc4ccc(CC5NC(=O)C(C(C)c6ccccc6)NC(=O)CNC(=O)C(CO)NC(=O)C(C(O)C6CNC(=N)N6C6OC(CO)C(O)C(O)C6O)NC(=O)C(C(O)C6CNC(=N)N6)NC5=O)cc4)C(O)C3O)C(O)C(O)C2O1 (stereo not drawn) [Example 116, Cyclo[glycyl-β-methylphenylalanyl-O-[4-O-[4,6-O-(2-ethylbutylidene)hexopyranosyl]-hexopyranosyl]tyrosyl-3-(2-iminoimidazolidin-4-yl)seryl-3-(3-hexopyranosyl-2-iminoimidazolidin-4-yl)serylseryl]]",MIC Enterococccus avium (GC 4558),[1],2 µg/mL
same,MIC Enterococccus faecalis (ATCC 29212),[1],2 µg/mL
same,MIC Enterococccus faecalis (GC 2691),[1],2 µg/mL
same,MIC Enterococccus faecalis (GC 3059),[1],2 µg/mL
same,MIC Enterococccus faecalis (GC 4552),[1],2 µg/mL
same,MIC Enterococccus faecalis (GC 4553),[1],2 µg/mL
same,MIC Enterococccus faecalis (GC 4554),[1],2 µg/mL
same,MIC Enterococccus faecalis (GC 6189),[1],2 µg/mL
same,MIC Enterococccus faecium (GC 2243),[1],2 µg/mL
same,MIC Enterococccus faecium (GC 4556),[1],2 µg/mL
same,MIC Enterococccus faecium (GC 4557),[1],2 µg/mL
same,MIC Enterococcus faecalis (GC 2242),[1],2 µg/mL
same,MIC Escherichia coli (ATCC 25922),[2],32 µg/mL
same,MIC Escherichia coli (GC 4559),[2],64 µg/mL
same,MIC Escherichia coli (GC 4560),[2],1 µg/mL
same,MIC Staphylococcus aureus (ATCC 29213),[3],1 µg/mL
same,MIC Staphylococcus aureus (ATCC 29213),[3]; [6],1 µg/mL
same,MIC Staphylococcus aureus (GC 1131),[3],1 µg/mL
same,MIC Staphylococcus aureus (GC 1131),[3]; [6],1 µg/mL
same,MIC Staphylococcus aureus (GC 3051),[3],1 µg/mL
same,MIC Staphylococcus aureus (GC 3051),[3]; [6],1 µg/mL
same,MIC Staphylococcus aureus (GC 3053),[3],1 µg/mL
same,MIC Staphylococcus aureus (GC 3053),[3]; [6],1 µg/mL
same,MIC Staphylococcus aureus (GC 4541),[3],1 µg/mL
same,MIC Staphylococcus aureus (GC 4541),[3]; [6],1 µg/mL
same,MIC Staphylococcus aureus (GC 4542),[3],0.5 µg/mL
same,MIC Staphylococcus aureus (GC 4542),[3]; [6],0.5 µg/mL
same,MIC Staphylococcus aureus-SMITH (GC 4543),[3]; 18 hours at 35° C.,1 µg/mL
same,MIC Staphylococcus aureus-SMITH (GC 4543),[3]; [6],1 µg/mL
same,MIC Staphylococcus aureus (GC 4544),[3],1 µg/mL
same,MIC Staphylococcus aureus (GC 4544),[3]; [6],1 µg/mL
same,MIC Staphylococcus aureus (GC 4545),[3],1 µg/mL
same,MIC Staphylococcus aureus (GC 4545),[3]; [6],1 µg/mL
same,MIC Staphylococcus haemolyticus (GC 4546),[3],0.5 µg/mL
same,MIC Staphylococcus haemolyticus (GC 4546),[3]; [6],0.5 µg/mL
same,MIC Coagulase Negative Staphylococcus (GC 4547),[3],1 µg/mL
same,MIC Coagulase Negative Staphylococcus (GC 4547),[3]; [6],1 µg/mL
same,MIC Coagulase Negative Staphylococcus (GC 4548),[3],1 µg/mL
same,MIC Coagulase Negative Staphylococcus (GC 4548),[3]; [6],1 µg/mL
same,MIC Coagulase Negative Staphylococcus (GC 4549),[3],1 µg/mL
same,MIC Coagulase Negative Staphylococcus (GC 4549),[3]; [6],1 µg/mL
same,MIC Coagulase Negative Staphylococcus (GC 4551),[3],1 µg/mL
same,MIC Coagulase Negative Staphylococcus (GC 4551),[3]; [6],1 µg/mL
same,MIC Coagulase Negative Staphylococcus (GC 6257),[3],0.5 µg/mL
same,MIC Coagulase Negative Staphylococcus (GC 6257),[3]; [6],0.5 µg/mL
same,MIC Streptococcus agalactiae (GC 4564),[4],0.25 µg/mL
same,MIC Streptococcus pneumoniae (GC 1894),[4],<0.06 µg/mL
same,MIC Streptococcus pneumoniae (GC 4565),[4],<0.06 µg/mL
same,MIC Streptococcus pneumonine (ATCC 6301),[4],<0.06 µg/mL
same,MIC Streptococcus pyogenes (GC 4563),[4],0.25 µg/mL
same,"median effective dose (ED50), Enterococcus faecalis (GC 6189)",[5],0.46 mg/kg
"CC(c1ccccc1)C1NC(=O)CNC(=O)C(CO)NC(=O)C(C(O)C2CNC(=N)N2C2OC(CO)C(O)C(O)C2O)NC(=O)C(C(O)C2CNC(=N)N2)NC(=O)C(Cc2ccc(OC3OC(CO)C(OC4OC5COC(C6CCCC6)OC5C(O)C4O)C(O)C3O)cc2)NC1=O (stereo not drawn) [Example 117, Cyclo[glycyl-β-methylphenylalanyl-O-[4-O-[4,6-O-(cyclopentylethylene)hexopyranosyl]-hexopyranosyl]tyrosyl-3-(2-iminoimidazolidin-4-yl)seryl-3-(3-hexopyranosyl-2-iminoimidazolidin-4-yl)serylseryl]]",MIC Enterococccus avium (GC 4558),[1],4 µg/mL
same,MIC Enterococccus faecalis (ATCC 29212),[1],2 µg/mL
same,MIC Enterococccus faecalis (GC 2691),[1],4 µg/mL
same,MIC Enterococccus faecalis (GC 3059),[1],4 µg/mL
same,MIC Enterococccus faecalis (GC 4552),[1],4 µg/mL
same,MIC Enterococccus faecalis (GC 4553),[1],4 µg/mL
same,MIC Enterococccus faecalis (GC 4554),[1],2 µg/mL
same,MIC Enterococccus faecalis (GC 6189),[1],2 µg/mL
same,MIC Enterococccus faecium (GC 2243),[1],2 µg/mL
same,MIC Enterococccus faecium (GC 4556),[1],2 µg/mL
same,MIC Enterococccus faecium (GC 4557),[1],2 µg/mL
same,MIC Enterococcus faecalis (GC 2242),[1],2 µg/mL
same,MIC Escherichia coli (ATCC 25922),[2],64 µg/mL
same,MIC Escherichia coli (GC 4559),[2],32 µg/mL
same,MIC Escherichia coli (GC 4560),[2],1 µg/mL
same,MIC Staphylococcus aureus (ATCC 29213),[3],1 µg/mL
same,MIC Staphylococcus aureus (ATCC 29213),[3]; [6],1 µg/mL
same,MIC Staphylococcus aureus (GC 1131),[3],2 µg/mL
same,MIC Staphylococcus aureus (GC 1131),[3]; [6],2 µg/mL
same,MIC Staphylococcus aureus (GC 3051),[3],1 µg/mL
same,MIC Staphylococcus aureus (GC 3051),[3]; [6],1 µg/mL
same,MIC Staphylococcus aureus (GC 3053),[3],2 µg/mL
same,MIC Staphylococcus aureus (GC 3053),[3]; [6],2 µg/mL
same,MIC Staphylococcus aureus (GC 4541),[3],1 µg/mL
same,MIC Staphylococcus aureus (GC 4541),[3]; [6],1 µg/mL
same,MIC Staphylococcus aureus (GC 4542),[3],1 µg/mL
same,MIC Staphylococcus aureus (GC 4542),[3]; [6],1 µg/mL
same,MIC Staphylococcus aureus-SMITH (GC 4543),[3]; 18 hours at 35° C.,1 µg/mL
same,MIC Staphylococcus aureus-SMITH (GC 4543),[3]; [6],1 µg/mL
same,MIC Staphylococcus aureus (GC 4544),[3],2 µg/mL
same,MIC Staphylococcus aureus (GC 4544),[3]; [6],2 µg/mL
same,MIC Staphylococcus aureus (GC 4545),[3],1 µg/mL
same,MIC Staphylococcus aureus (GC 4545),[3]; [6],1 µg/mL
same,MIC Staphylococcus haemolyticus (GC 4546),[3],1 µg/mL
same,MIC Staphylococcus haemolyticus (GC 4546),[3]; [6],1 µg/mL
same,MIC Coagulase Negative Staphylococcus (GC 4547),[3],1 µg/mL
same,MIC Coagulase Negative Staphylococcus (GC 4547),[3]; [6],1 µg/mL
same,MIC Coagulase Negative Staphylococcus (GC 4548),[3],1 µg/mL
same,MIC Coagulase Negative Staphylococcus (GC 4548),[3]; [6],1 µg/mL
same,MIC Coagulase Negative Staphylococcus (GC 4549),[3],1 µg/mL
same,MIC Coagulase Negative Staphylococcus (GC 4549),[3]; [6],1 µg/mL
same,MIC Coagulase Negative Staphylococcus (GC 4551),[3],2 µg/mL
same,MIC Coagulase Negative Staphylococcus (GC 4551),[3]; [6],2 µg/mL
same,MIC Coagulase Negative Staphylococcus (GC 6257),[3],0.5 µg/mL
same,MIC Coagulase Negative Staphylococcus (GC 6257),[3]; [6],0.5 µg/mL
same,MIC Streptococcus agalactiae (GC 4564),[4],0.25 µg/mL
same,MIC Streptococcus pneumoniae (GC 1894),[4],<0.06 µg/mL
same,MIC Streptococcus pneumoniae (GC 4565),[4],0.12 µg/mL
same,MIC Streptococcus pneumonine (ATCC 6301),[4],<0.06 µg/mL
same,MIC Streptococcus pyogenes (GC 4563),[4],0.25 µg/mL
same,"median effective dose (ED50), Enterococcus faecalis (GC 6189)",[5],0.38 mg/kg
